Test results: PMC5971037, “Synthesis and evaluation of antimicrobial, antitubercular and anticancer activities of 2-(1-benzoyl-1H-benzo[d]imidazol-2-ylthio)-N-substituted acetamides” (Chemistry Central Journal, 2018)
≈ marks a conversion by molar mass, not a printed value. Where two headings read alike, the source gives them in different places.

Columns and labels:
A. niger [1] = experiment: microbe, parasite or virus in culture; settings: Aspergillus niger, 168 h, read-out: MIC A. niger
[2] = tested on: MCF7 (human breast cancer) cell line; experiment: Sulforhodamine-B (SRB) cytotoxicity assay; assay type: cell-based
B. cereus [3] = experiment: Tube dilution MIC; settings: Bacillus cereus, 24 h, read-out: MIC B. cereus
C. albicans [4] = experiment: microbe, parasite or virus in culture; settings: Candida albicans, 48 h, read-out: MIC C. albicans
S. aureus [5] = experiment: Tube dilution MIC; settings: Staphylococcus aureus, 24 h, read-out: MIC S. aureus
B. subtilis [6] = experiment: Tube dilution MIC; settings: Bacillus subtilis, 24 h, read-out: MIC B. subtilis
M. tuberculosis H37Rv [7] = experiment: MIC by microplate alamar blue assay; assay type: cell-based; settings: Mycobacterium tuberculosis, NA = no activity, read-out: MIC against M. tuberculosis H37Rv
[8] = tested on: HCT116 (human colorectal) cell line; experiment: Sulforhodamine-B (SRB) cytotoxicity assay; assay type: cell-based
C. albicans [9] = experiment: MFC by subculturing; assay type: cell-based
Protocol: (§1) The minimum bactericidal concentration (MBC) and minimum fungicidal concentration (MFC) of the synthesized benzimidazole derivatives was determined by subculturing 100 µl of culture from each tube that remained clear in MIC determination onto sterilized petri-plates containing fresh agar medium. The petri-plates were incubated and analyzed for microbial growth visually.

A. niger [10] = experiment: MFC by subculturing; assay type: cell-based
Protocol: as §1

[11] = molecular target: mycobacterial isocitrate lyase (Mycobacterium tuberculosis, UniProt P9WKK7); experiment: Mycobacterial isocitrate lyase (ICL) assay; assay type: biochemical, M. tuberculosis H37Rv; settings: read-out: Percent inhibition of enzyme, M. ICL activity
Protocol: The compounds found potent in in vivo evaluation were assayed for inhibition of mycobacterial enzymes viz., isocitrate lyase, pantothenate synthetase and chorismate mutase.
Isocitrate lyase activity was assayed according to the protocol reported by Dixon and Kornberg (glyoxylate phenyl hydrazone formation) at 10 μM of the compounds.

E. coli [12] = experiment: MBC by subculturing; assay type: cell-based; settings: Escherichia coli
Protocol: as §1

B. subtilis [13] = experiment: MBC by subculturing; assay type: cell-based
Protocol: as §1

B. cereus [14] = experiment: MBC by subculturing; assay type: cell-based
Protocol: as §1

S. typhi [15] = experiment: MBC by subculturing; assay type: cell-based; settings: Salmonella enterica, read-out: MBC S. typhi
Protocol: as §1

S. aureus [16] = experiment: MBC by subculturing; assay type: cell-based; settings: Staphylococcus aureus
Protocol: as §1

[17] = In vivo LD50, ED50 and toxic dose in mice models; settings: mouse, dose that killed 50% of the mice population within the group
Protocol: The LD50 and ED50 were determined for the active compounds in mice models infected with Mycobacterium H37Rv (Table 4). […] Thus, ED50 of 1.34 mg/kg was considered safe for each of the compounds. It was observed that this dose was effective and safe for mice in different groups before infecting the mice models with specific TB bacteria as no mortality of any single animal was recorded.
The LD50 (lethal dose) and ED50 (optimum/effective dose) doses were determined for the active compounds in mice models infected with Mycobacterium H37Rv via ethical permission no., NCFT/EC/16/2313 assigned to Collaborative Research Group (CRG), NCFT, New Delhi, India.

[18] = tested on: M. tuberculosis H37Rv (NCFT/TB/537); experiment: Well diffusion susceptibility test (zone of inhibition); assay type: cell-based; settings: Mycobacterium tuberculosis, 672 h, read-out: Diameter of zone of inhibition against H37Rv (NCFT/TB/537), wells of 8 mm, 50 µg/ml test compound, 25 µg/ml standard drug, 4 weeks, NA = no activity
M. tuberculosis H37Rv [19] = experiment: Minimum lethal concentration (MLC); assay type: cell-based; settings: Mycobacterium tuberculosis, NA = no activity, read-out: MLC against M. tuberculosis H37Rv
E. coli [20] = experiment: Tube dilution MIC; settings: Escherichia coli, 24 h, read-out: MIC E. coli
[21] = tested on: Gram positive as well as Gram negative bacterial species; experiment: Tube dilution MIC, bacteria overall; assay type: cell-based
S. typhi [22] = experiment: Tube dilution MIC; assay type: cell-based; settings: Salmonella enterica, 24 h, read-out: MIC S. typhi

mycobacterial isocitrate lyase, sequence (P9WKK7 whole entry): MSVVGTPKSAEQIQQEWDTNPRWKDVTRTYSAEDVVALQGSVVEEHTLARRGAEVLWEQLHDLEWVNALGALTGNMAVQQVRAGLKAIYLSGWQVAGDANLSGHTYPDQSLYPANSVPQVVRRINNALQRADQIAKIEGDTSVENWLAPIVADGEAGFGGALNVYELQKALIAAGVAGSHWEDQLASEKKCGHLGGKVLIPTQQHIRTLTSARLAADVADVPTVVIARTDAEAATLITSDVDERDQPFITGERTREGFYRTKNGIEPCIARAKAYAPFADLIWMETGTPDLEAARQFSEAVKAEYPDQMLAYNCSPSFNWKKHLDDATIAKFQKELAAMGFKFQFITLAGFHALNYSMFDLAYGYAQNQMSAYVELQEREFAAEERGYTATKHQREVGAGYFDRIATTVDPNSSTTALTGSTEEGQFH

## O=C(CSc1nc2ccccc2n1C(=O)c1ccccc1)Nc1cccc(Br)c1 [Compound 8, 2-(1-Benzoyl-1H-benzo[d]imidazol-2-ylthio)-N-(3-bromophenyl)acetamide]
A. niger [1]
  MIC: 27 µM (≈ 12.6 µg/mL)
[2]; MCF7, read-out: IC50 MCF7
  IC50: 68.6 µM
B. cereus [3]
  MIC: 27 µM (≈ 12.6 µg/mL)
C. albicans [4]
  MIC: 13 µM (≈ 6.06 µg/mL)
S. aureus [5]
  MIC: 27 µM (≈ 12.6 µg/mL)
B. subtilis [6]
  MIC: 27 µM (≈ 12.6 µg/mL)
M. tuberculosis H37Rv [7]
  MIC: 12.5 µg/mL (≈ 26.8 µM)
[8]; HCT-116, read-out: IC50 HCT116
  IC50: 107 µM
C. albicans [9]; Candida albicans, read-out: MFC C. albicans
  MFC: 50 µg/mL (≈ 107 µM)
A. niger [10]; Aspergillus niger, read-out: MFC A. niger
  MFC: > 50 µg/mL
[11]
  inhibition at 10 µM: 59.5%
E. coli [12]
  MBC: > 50 µg/mL
B. subtilis [13]; Bacillus subtilis, read-out: MBC B. subtilis
  MBC: > 50 µg/mL
B. cereus [14]; Bacillus cereus, read-out: MBC B. cereus
  MBC: > 50 µg/mL
S. typhi [15]
  MBC: > 50 µg/mL
S. aureus [16]
  MBC: 50 µg/mL (≈ 107 µM)
[17]
  LD50: 1.88 mg/kg
[18]
  zone of inhibition at 50 µg/mL: > 20 mm
M. tuberculosis H37Rv [19]
  MBC: 25 µg/mL (≈ 53.6 µM)
E. coli [20]
  MIC: 27 µM (≈ 12.6 µg/mL)
[21]
  MIC against Gram positive as well as Gram negative bacterial species: 0.027 µM/ml
S. typhi [22]
  MIC: 27 µM (≈ 12.6 µg/mL)

## O=C(CSc1nc2ccccc2n1C(=O)c1ccccc1)Nc1ccc(Cl)cc1[N+](=O)[O-] [Compound 11, 2-(1-Benzoyl-1H-benzo[d]imidazol-2-ylthio)-N-(4-chloro-2-nitrophenyl)acetamide]
A. niger [1]
  MIC: 27 µM (≈ 12.6 µg/mL)
[2]; SRB assay, MCF7 cell line, read-out: IC50 MCF7
  IC50: 161 µM
B. cereus [3]
  MIC: 27 µM (≈ 12.6 µg/mL)
C. albicans [4]
  MIC: 13 µM (≈ 6.07 µg/mL)
S. aureus [5]
  MIC: 27 µM (≈ 12.6 µg/mL)
B. subtilis [6]
  MIC: 27 µM (≈ 12.6 µg/mL)
M. tuberculosis H37Rv [7]
  MIC: 15 µg/mL (≈ 32.1 µM)
[8]; HCT-116, SRB assay, HCT116 cell line, read-out: IC50 HCT116
  IC50: 23.6 µM
C. albicans [9]; Candida albicans; read-out: MFC C. albicans
  MFC: > 50 µg/mL
A. niger [10]; Aspergillus niger; read-out: MFC A. niger
  MFC: > 50 µg/mL
E. coli [12]
  MBC: 50 µg/mL (≈ 107 µM)
B. subtilis [13]; Bacillus subtilis; read-out: MBC B. subtilis
  MBC: 50 µg/mL (≈ 107 µM)
B. cereus [14]; Bacillus cereus; read-out: MBC B. cereus
  MBC: > 50 µg/mL
S. typhi [15]
  MBC: 50 µg/mL (≈ 107 µM)
S. aureus [16]
  MBC: 50 µg/mL (≈ 107 µM)
[18]
  zone of inhibition at 50 µg/mL: 10 mm
M. tuberculosis H37Rv [19]
  MBC: 28 µg/mL (≈ 60 µM)
E. coli [20]
  MIC: 27 µM (≈ 12.6 µg/mL)
[21]
  MIC against Gram positive as well as Gram negative bacterial species: 0.027 µM/ml
S. typhi [22]
  MIC: 27 µM (≈ 12.6 µg/mL)
